Where two headings read alike, the source gives them in different places.
Legend:
Test in all cases: Kinase panel study
Assay type in all cases: biochemical
AKT2 (PKB beta) = target: T1, AKT2 (PKB beta) (Homo sapiens, UniProt P31751); conditions: for inhibition at 1 µM: 1000nM
T1 construct: purchased Thermo Fisher Scientific
In short: (§1)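 Lead compounds and derivatives were profiled by ZLyte or Adapta in vitro kinase assays. Each value reports inhibition percentage at one of two concentrations, 1 µM or 10 µM.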

AKT3 (PKB gamma) = target: T2, AKT3 (PKB gamma) (Homo sapiens, UniProt Q9Y243); conditions: for inhibition at 1 µM: 1000nM
T2 construct: purchased Thermo Fisher Scientific
In short: as §1

DNA-PK = target: T3, DNA-PK (Homo sapiens, UniProt P78527); conditions: for inhibition at 1 µM: 1000nM
T3 construct: purchased Thermo Fisher Scientific
In short: (§2)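 Inhibition was measured in an outsourced in vitro kinase panel using the ZLyte or Adapta format under the provider's standard procedures. Values are percent inhibition at 10 µM or 1 µM compound, and IC50s were also obtained.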

FLT3 = target: T4, FLT3 (Homo sapiens, UniProt P36888); conditions: for inhibition at 1 µM: 1000nM
T4 construct: purchased Thermo Fisher Scientific
T4 sequence (P36888 27-993): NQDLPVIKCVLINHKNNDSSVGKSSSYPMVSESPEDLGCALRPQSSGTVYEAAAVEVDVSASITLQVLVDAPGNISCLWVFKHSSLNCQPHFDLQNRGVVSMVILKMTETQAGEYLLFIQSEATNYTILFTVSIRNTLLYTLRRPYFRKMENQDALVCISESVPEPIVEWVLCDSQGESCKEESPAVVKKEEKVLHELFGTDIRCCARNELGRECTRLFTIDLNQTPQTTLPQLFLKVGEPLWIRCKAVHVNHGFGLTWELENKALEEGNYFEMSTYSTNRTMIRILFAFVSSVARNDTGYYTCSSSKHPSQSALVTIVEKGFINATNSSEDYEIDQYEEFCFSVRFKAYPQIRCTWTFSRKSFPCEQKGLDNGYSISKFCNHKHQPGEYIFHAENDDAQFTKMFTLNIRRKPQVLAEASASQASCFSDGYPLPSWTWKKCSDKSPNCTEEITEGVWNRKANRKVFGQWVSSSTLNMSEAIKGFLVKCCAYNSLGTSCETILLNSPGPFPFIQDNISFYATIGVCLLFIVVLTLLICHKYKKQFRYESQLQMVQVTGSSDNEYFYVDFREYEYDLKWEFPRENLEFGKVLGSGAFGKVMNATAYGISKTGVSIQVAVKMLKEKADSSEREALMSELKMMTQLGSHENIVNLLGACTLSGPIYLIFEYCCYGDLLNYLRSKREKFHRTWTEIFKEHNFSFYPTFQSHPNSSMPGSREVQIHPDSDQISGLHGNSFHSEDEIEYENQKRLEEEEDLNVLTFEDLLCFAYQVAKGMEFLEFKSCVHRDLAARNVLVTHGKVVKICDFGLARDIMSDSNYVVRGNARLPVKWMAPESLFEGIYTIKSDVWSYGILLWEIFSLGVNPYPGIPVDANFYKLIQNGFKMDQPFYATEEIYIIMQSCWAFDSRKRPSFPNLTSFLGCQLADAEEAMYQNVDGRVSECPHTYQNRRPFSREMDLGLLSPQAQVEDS
In short: as §1

MINK1 = target: T5, MINK1 (Homo sapiens, UniProt Q8N4C8); conditions: for inhibition at 1 µM: 1000nM
T5 construct: purchased Thermo Fisher Scientific
In short: as §1

[1] = target: T6, PIK3CA/PIK3R1 (p11 0 alpha/p85 alpha) (Homo sapiens, UniProt P42336); conditions: for inhibition at 1 µM: 1000nM
T6 construct: purchased Thermo Fisher Scientific
In short: as §1

PIK3CG (p11 0 gamma) = target: T7, PIK3CG (p11 0 gamma) (Homo sapiens, UniProt P48736); conditions: for inhibition at 1 µM: 1000nM; for IC50: in vitro kinase panel, criterion of at most 2000 nM
T7 construct: purchased Thermo Fisher Scientific
In short: as §2

PIP5K1B = target: T8, PIP5K1B (Homo sapiens, UniProt O14986); conditions: for inhibition at 1 µM: 1000nM
T8 construct: purchased Thermo Fisher Scientific
In short: as §1

[2] = read-out: Percentage of inhibition
[3] = 10000nM, read-out: Percentage of inhibition
[4] = AKT2 (PKB beta), compound at 10µM, read-out: % of Inhibition
[5] = AKT3 (PKB gamma), compound at 10µM, read-out: % of Inhibition
[6] = DNA-PK, compound at 10µM, read-out: % of Inhibition
[7] = FLT3, compound at 10µM, read-out: % of Inhibition
[8] = MINK1, compound at 10µM, read-out: % of Inhibition
[9] = PIK3CA/PIK3R1, compound at 10µM, read-out: % of Inhibition
[10] = PIK3CG, compound at 10µM, read-out: % of Inhibition
[11] = PIP5K1B, compound at 10µM, read-out: % of Inhibition

T1 sequence (P31751 whole entry): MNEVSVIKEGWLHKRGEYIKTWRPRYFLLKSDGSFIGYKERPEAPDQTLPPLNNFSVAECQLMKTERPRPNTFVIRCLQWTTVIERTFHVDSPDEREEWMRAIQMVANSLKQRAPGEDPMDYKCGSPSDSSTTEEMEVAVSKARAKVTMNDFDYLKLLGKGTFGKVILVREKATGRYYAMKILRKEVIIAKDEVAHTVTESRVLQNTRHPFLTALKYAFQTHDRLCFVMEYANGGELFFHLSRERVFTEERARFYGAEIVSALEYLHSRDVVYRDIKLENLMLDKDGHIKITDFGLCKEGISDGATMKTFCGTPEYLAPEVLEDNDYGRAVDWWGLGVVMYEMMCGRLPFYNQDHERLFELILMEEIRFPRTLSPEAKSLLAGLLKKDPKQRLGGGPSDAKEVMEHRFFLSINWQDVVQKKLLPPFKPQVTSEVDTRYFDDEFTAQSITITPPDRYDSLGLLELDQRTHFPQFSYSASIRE
T5 sequence (Q8N4C8 whole entry): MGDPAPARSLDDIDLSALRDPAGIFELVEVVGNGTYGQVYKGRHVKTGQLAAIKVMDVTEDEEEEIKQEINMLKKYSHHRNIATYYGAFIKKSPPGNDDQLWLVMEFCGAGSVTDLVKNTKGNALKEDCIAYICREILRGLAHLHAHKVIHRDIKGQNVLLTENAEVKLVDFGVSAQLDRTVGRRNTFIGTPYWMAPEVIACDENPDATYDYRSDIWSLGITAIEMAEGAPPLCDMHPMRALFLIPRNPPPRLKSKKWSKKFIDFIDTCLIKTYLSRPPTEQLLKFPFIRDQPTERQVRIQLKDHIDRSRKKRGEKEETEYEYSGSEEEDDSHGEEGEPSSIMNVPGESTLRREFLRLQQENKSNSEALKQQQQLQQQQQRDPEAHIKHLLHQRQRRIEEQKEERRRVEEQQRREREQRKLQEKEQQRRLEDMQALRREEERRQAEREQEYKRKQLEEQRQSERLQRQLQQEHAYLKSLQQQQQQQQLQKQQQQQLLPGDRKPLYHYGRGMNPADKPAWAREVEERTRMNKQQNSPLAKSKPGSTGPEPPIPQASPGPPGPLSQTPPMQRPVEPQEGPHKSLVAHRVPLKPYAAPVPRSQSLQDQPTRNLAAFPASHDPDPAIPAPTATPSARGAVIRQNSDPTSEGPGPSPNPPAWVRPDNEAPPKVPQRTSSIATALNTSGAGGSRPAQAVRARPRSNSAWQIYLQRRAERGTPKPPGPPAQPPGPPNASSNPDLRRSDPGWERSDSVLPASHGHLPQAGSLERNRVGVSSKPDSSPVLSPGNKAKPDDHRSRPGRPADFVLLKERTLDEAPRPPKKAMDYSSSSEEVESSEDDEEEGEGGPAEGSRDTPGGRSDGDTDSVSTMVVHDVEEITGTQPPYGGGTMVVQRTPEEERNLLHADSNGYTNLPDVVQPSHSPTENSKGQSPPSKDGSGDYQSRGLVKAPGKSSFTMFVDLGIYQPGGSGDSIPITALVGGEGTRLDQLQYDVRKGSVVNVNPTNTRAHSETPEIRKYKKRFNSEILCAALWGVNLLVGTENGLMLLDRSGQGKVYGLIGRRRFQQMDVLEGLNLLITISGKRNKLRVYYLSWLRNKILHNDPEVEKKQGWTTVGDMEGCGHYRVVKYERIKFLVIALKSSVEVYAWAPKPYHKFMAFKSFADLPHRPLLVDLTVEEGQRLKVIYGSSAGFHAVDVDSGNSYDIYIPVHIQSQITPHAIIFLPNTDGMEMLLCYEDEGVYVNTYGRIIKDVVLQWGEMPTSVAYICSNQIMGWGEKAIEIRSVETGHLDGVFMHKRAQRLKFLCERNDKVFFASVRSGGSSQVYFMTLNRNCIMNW
T8 sequence (O14986 whole entry): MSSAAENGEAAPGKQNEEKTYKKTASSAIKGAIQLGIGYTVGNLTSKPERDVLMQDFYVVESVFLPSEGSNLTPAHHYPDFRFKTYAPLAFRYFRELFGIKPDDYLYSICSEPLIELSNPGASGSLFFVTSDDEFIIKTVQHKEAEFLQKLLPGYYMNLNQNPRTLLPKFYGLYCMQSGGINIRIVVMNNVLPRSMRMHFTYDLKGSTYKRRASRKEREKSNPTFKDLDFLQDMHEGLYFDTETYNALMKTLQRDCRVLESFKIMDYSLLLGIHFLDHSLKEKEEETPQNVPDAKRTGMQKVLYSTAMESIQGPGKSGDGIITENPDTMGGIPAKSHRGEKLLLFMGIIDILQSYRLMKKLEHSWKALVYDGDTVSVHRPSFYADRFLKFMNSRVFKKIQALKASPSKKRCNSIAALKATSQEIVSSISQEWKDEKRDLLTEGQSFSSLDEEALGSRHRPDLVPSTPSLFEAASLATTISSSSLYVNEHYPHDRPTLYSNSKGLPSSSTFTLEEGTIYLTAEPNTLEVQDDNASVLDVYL
T7 sequence (P48736 whole entry): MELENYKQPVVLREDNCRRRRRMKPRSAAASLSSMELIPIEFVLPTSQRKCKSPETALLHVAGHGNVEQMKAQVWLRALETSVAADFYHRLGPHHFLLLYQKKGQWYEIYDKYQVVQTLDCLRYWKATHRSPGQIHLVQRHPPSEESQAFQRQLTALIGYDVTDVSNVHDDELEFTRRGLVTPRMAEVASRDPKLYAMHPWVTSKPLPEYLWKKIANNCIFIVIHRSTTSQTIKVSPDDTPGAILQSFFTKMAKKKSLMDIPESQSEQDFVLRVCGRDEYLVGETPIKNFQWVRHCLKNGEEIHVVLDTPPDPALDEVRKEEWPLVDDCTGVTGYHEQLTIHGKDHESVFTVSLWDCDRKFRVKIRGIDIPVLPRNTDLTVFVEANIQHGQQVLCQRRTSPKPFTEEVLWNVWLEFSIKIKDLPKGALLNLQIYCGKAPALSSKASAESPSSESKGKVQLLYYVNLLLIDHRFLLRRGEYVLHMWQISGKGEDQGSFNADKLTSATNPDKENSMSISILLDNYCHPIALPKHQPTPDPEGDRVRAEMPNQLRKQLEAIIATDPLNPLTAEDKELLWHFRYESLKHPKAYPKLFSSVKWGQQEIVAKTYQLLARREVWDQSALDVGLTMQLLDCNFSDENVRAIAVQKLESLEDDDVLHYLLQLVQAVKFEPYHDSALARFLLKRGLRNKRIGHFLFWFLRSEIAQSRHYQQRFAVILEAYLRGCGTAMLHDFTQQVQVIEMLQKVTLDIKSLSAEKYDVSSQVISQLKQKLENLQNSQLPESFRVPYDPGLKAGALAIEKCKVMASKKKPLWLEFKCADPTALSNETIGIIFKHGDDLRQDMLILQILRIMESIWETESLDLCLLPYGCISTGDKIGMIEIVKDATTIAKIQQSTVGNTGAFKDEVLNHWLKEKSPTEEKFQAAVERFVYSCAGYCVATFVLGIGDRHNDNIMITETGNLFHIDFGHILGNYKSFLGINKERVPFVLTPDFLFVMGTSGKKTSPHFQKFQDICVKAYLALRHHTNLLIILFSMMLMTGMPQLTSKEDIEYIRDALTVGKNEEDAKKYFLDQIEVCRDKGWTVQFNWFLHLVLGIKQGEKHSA
T2 sequence (Q9Y243 whole entry): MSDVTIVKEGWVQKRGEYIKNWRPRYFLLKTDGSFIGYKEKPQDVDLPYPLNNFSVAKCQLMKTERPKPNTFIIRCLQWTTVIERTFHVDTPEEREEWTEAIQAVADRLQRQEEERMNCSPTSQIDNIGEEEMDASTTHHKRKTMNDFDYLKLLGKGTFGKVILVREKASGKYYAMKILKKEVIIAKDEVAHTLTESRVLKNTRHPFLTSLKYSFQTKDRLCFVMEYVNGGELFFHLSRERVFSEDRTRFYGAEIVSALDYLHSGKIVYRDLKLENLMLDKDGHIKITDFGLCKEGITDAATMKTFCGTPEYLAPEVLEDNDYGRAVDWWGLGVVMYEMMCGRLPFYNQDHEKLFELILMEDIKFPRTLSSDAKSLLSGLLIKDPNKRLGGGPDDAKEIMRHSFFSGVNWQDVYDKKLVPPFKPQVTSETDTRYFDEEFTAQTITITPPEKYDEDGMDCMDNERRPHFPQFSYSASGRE

inhibition at 10 µM (AKT2 (PKB beta); [4]) [%] | inhibition at 10 µM (AKT3 (PKB gamma); [5]) [%] | inhibition at 10 µM (DNA-PK; [6]) [%] | inhibition at 10 µM (FLT3; [7]) [%] | inhibition at 10 µM (MINK1; [8]) [%] | inhibition at 10 µM [1, 9] [%] | inhibition at 10 µM (PIK3CG (p11 0 gamma); [10]) [%] | inhibition at 10 µM (PIP5K1B; [11]) [%] | Compound | also measured
– | – | – | – | – | – | – | – | COc1ccc2c(c1OC)c(=O)n1c3ccc(O)cc3c3ccnc2c31 [MW01, 5-Hydroxy-10,11-dimethoxy-9H-benzo[c]indolo[3,2,1-ij][1,5]naphthyridin-9-one] | inhibition at 1 µM (AKT2 (PKB beta); [2]): 1%; inhibition at 10 µM (AKT2 (PKB beta); [3]): 9%; inhibition at 1 µM (AKT3 (PKB gamma); [2]): 7%; inhibition at 10 µM (AKT3 (PKB gamma); [3]): 18%; inhibition at 1 µM (DNA-PK; [2]): 86%; inhibition at 10 µM (DNA-PK; [3]): 96%; inhibition at 1 µM (FLT3; [2]): 61%; inhibition at 10 µM (FLT3; [3]): 86%; inhibition at 1 µM (MINK1; [2]): 60%; inhibition at 10 µM (MINK1; [3]): 73%; inhibition at 1 µM [1, 2]: 81%; inhibition at 10 µM [1, 3]: 86%; inhibition at 1 µM (PIK3CG (p11 0 gamma); [2]): 81%; inhibition at 10 µM (PIK3CG (p11 0 gamma); [3]): 88%; IC50 (PIK3CG (p11 0 gamma)): ≤ 2 µM; inhibition at 1 µM (PIP5K1B; [2]): 4%; inhibition at 10 µM (PIP5K1B; [3]): 21%
– | – | – | – | – | – | – | – | COc1ccc2cc3c(N)nn(C(=O)c4cccc(N(C)C)c4)c3nc2c1 [MW05, (3-Amino-7-methoxypyrazolo[3,4-b]quinolin-1-yl)-[3-(dimethylamino)phenyl]methanone] | inhibition at 1 µM (AKT2 (PKB beta); [2]): 10%; inhibition at 10 µM (AKT2 (PKB beta); [3]): -8%; inhibition at 1 µM (AKT3 (PKB gamma); [2]): 4%; inhibition at 10 µM (AKT3 (PKB gamma); [3]): -6%; inhibition at 1 µM (DNA-PK; [2]): 30%; inhibition at 10 µM (DNA-PK; [3]): 61%; IC50 (DNA-PK; in vitro kinase panel, sub-2000 nM criterion): ≥ 2 µM; inhibition at 1 µM (FLT3; [2]): 2%; inhibition at 10 µM (FLT3; [3]): 6%; inhibition at 1 µM (MINK1; [2]): 20%; inhibition at 10 µM (MINK1; [3]): 9%; inhibition at 1 µM [1, 2]: 14%; inhibition at 10 µM [1, 3]: 52%; inhibition at 1 µM (PIK3CG (p11 0 gamma); [2]): 20%; inhibition at 10 µM (PIK3CG (p11 0 gamma); [3]): 70%; IC50 (PIK3CG (p11 0 gamma)): ≤ 2 µM; inhibition at 1 µM (PIP5K1B; [2]): -13%; inhibition at 10 µM (PIP5K1B; [3]): 7%
4 | 12 | 9 | 31 | 57 | 38 | -1 | 14 | COc1ccc2c(c1)c1ccnc3c4nc(OC)ccc4c(=O)n2c13 [MW01-E6, 5,15-dimethoxy-1,11,14-triazapentacyclo[10.7.1,0^2,7.0^8,^20.0^13,^18]icosa-2(7),3,5,8(20),9,11,13(18),14,16-nonaen-19-one] | –
3 | 19 | 94 | 65 | 85 | 90 | 99 | -3 | O=c1c2cnccc2c2nccc3c4cc(O)ccc4n1c32 [MW01-E18, 5-hydroxy-1,11,16-triazapentacyclo[10.7.1.0^2,^7.0^8,^20.0^13,^18]icosa-2(7),3,5,8(20),9,11,13(18),14,16-nonaen-19-one] | –
14 | 23 | 43 | 12 | 12 | 80 | 49 | 26 | COc1ccc2c(c1)c1ccnc3c4ccnc(OC)c4c(=O)n2c13 [MW01-E14, 5,17-dimethoxy-1,11,16-triazapentacyclo[10.7.1.0^2,^7.0^8,^20.0^13,^18]icosa-2(7),3,5,8(20),9,11,13(18),14,16-nonaen-19-one] | –
8 | 11 | 16 | 17 | 29 | 26 | 2 | -12 | COc1ccc2nc3c(cc2c1)c(N)nn3C(=O)c1cccc(N(C)C)c1 [MW05-E2, 1-[3-(dimethylamino)benzoyl]-6-methoxy-1H-pyrazolo[3,4-b]quinolin-3-amine] | –
18 | 24 | 62 | 27 | 92 | 90 | 93 | 5 | O=c1c2cc(O)ccc2c2nccc3c4cc(O)ccc4n1c32 [MW01-E10, 5,16-dihydroxy-1,11-diazapentacyclo[10.7.1.0^2,^7.0^8,^20.0^13,^18]icosa-2(7),3,5,8(20),9,11,13(18),14,16-nonaen-19-one] | –
